# ChEMBL document CHEMBL3132769, “Fragment growing to retain or alter the selectivity of anchored kinase hinge-binding fragments” (Medchemcomm, 2014)
# Columns and labels:
# [1] = target: T1, Cytoplasmic tyrosine-protein kinase BMX (Homo sapiens) (UniProt P51813); assay: Inhibition of human full length BMX expressed in baculovirus assessed as substrate phosphorylation using fluorescence-labelled peptides as substrate at 0.06 uM after 90 mins by microfluidic peptide phosphorylation assay
# T1 sequence (whole entry): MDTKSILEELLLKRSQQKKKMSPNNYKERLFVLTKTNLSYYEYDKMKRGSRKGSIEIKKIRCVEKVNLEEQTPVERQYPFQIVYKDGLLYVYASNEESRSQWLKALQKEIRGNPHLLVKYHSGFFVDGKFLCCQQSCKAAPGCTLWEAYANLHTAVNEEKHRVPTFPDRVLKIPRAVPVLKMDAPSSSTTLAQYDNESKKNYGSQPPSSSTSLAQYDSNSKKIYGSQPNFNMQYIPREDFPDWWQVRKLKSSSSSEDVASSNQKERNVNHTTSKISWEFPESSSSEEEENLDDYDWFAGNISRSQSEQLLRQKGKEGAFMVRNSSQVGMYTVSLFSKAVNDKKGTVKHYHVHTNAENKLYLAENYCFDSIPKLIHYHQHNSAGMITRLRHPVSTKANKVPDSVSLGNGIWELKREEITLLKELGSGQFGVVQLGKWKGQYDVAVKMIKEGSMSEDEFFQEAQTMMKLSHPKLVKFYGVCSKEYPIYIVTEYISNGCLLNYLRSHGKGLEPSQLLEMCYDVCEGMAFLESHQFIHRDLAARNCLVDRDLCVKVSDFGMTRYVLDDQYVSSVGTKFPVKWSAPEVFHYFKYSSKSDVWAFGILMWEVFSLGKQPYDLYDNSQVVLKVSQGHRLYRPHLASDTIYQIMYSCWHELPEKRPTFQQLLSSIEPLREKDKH
# [2] = target: T2, Serine/threonine-protein kinase Sgk3 (Homo sapiens) (UniProt Q96BR1); assay: Inhibition of human full length SGK3 expressed in baculovirus assessed as substrate phosphorylation using fluorescence-labelled peptides as substrate at 2 uM after 90 mins by microfluidic peptide phosphorylation assay
# T2 sequence (whole entry): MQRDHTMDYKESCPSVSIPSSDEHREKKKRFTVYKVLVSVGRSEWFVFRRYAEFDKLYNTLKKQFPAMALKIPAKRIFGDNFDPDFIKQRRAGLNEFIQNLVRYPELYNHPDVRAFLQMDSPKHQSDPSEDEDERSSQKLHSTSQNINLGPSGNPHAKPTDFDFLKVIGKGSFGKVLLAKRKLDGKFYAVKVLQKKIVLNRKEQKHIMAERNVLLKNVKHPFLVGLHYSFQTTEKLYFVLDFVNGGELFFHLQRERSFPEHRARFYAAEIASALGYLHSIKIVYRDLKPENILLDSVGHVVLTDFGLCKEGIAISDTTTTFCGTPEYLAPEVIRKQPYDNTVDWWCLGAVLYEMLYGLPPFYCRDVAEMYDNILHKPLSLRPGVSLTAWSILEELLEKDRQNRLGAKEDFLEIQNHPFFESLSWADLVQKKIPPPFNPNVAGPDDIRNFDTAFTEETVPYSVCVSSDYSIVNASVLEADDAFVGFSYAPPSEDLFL
# [3] = tested on: T3, Receptor-type tyrosine-protein kinase FLT3 (Homo sapiens), P36888 [D835Y]; assay: Inhibition of human FLT3 D835Y mutant catalytic domain expressed in baculovirus assessed as substrate phosphorylation using fluorescence-labelled peptides as substrate at […] after 90 mins by microfluidic peptide phosphorylation assay
# T3 sequence (whole entry): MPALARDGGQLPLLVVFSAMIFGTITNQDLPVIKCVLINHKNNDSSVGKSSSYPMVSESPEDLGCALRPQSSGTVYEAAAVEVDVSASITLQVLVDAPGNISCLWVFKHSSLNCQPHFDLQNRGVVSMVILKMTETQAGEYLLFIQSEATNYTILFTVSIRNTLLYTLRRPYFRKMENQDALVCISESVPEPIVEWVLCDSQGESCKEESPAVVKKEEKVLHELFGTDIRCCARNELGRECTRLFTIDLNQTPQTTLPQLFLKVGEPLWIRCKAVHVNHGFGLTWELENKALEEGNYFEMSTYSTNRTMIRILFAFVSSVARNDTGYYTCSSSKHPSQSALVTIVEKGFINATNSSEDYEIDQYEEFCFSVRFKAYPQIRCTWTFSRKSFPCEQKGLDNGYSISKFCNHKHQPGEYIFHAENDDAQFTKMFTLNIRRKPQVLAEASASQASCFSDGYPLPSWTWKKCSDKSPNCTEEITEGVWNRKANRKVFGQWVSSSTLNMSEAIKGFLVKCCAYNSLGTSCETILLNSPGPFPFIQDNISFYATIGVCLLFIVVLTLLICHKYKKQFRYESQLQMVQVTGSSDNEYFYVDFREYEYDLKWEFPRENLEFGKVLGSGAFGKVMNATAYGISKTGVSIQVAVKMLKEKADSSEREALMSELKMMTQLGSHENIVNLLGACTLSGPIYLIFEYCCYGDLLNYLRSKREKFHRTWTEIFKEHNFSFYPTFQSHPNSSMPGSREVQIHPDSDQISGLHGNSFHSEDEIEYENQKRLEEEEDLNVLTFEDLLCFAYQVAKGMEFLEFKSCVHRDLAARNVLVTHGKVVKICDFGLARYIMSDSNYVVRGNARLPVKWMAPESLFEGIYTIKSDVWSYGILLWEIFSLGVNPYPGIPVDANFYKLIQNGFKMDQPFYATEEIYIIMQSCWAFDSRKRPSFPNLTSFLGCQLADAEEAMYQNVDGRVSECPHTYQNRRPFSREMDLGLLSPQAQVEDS
# [4] = target: Receptor-type tyrosine-protein kinase FLT3 (Homo sapiens) (UniProt P36888); assay: Inhibition of human FLT3 catalytic domain expressed in baculovirus assessed as substrate phosphorylation using fluorescence-labelled peptides as substrate at […] after 90 mins by microfluidic peptide phosphorylation assay
# [5] = target: MAP kinase-activated protein kinase 3 (Homo sapiens) (UniProt Q16644); assay: Inhibition of human full length MAPKAPK3 expressed in Escherichia coli cell assessed as substrate phosphorylation using fluorescence-labelled peptides as substrate at 70 uM after 90 mins by microfluidic peptide phosphorylation assay
# MAP kinase-activated protein kinase 3 (Homo sapiens), sequence (Q16644 whole entry, looked up): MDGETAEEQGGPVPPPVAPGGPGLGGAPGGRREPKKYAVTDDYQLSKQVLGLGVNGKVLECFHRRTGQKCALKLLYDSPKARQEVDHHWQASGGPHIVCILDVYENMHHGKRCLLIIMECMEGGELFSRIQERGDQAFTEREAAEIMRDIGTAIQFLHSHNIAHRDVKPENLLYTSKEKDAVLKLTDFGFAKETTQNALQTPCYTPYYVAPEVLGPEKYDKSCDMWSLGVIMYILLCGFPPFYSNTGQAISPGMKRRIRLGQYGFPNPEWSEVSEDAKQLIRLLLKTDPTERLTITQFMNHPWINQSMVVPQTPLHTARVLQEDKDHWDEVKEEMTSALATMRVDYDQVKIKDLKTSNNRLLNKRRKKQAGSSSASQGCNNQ
# [6] = target: Serine/threonine-protein kinase Chk2 (Homo sapiens) (UniProt O96017); assay: Inhibition of human full length CHK2 expressed in baculovirus assessed as substrate phosphorylation using fluorescence-labelled peptides as substrate at 70 uM after 90 mins by microfluidic peptide phosphorylation assay
# Serine/threonine-protein kinase Chk2 (Homo sapiens), sequence (O96017 whole entry): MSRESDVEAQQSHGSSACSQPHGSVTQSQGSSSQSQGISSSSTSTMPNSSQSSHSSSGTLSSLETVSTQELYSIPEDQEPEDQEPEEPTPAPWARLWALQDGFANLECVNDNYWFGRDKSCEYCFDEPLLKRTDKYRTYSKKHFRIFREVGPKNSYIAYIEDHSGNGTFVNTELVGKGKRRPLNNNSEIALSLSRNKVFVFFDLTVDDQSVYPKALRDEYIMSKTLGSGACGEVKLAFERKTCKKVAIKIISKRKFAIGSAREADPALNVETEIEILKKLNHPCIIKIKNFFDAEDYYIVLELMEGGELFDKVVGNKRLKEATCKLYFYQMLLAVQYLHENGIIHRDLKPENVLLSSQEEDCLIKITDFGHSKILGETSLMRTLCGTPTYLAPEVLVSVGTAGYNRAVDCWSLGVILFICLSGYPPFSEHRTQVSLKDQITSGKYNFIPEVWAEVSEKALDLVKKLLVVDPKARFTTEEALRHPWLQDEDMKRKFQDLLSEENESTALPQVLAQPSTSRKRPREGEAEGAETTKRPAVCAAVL
compound,measurement,setting,value
NC1(Cc2ccc(Cl)cc2)CCN(c2ncnc3[nH]ccc23)CC1,inhibition,[1],0%
NC1CCN(c2ncnc3[nH]ccc23)CC1,inhibition,[2],34.5%
COC(=O)c1cnc(Nc2cnc(C#N)cn2)cc1NCC1CCNCC1,inhibition,[3],63%
same,inhibition,[4],21%
CNCc1ccc(-c2ncnc3[nH]cnc23)cc1,inhibition,[5],1.5%
same,inhibition,[6],57.5%
